The compounds below were run against recombinant human NK3 receptor (Homo sapiens (Human), UniProt P29371) (assay: biochemical). Conditions: [3H]SR142801, membranes of HEK293 cells transiently expressing recombinant human NK3 receptor; read-out: Data Ki (hNK-3 receptor affinity).
Type: binding

Chain of recombinant human NK3 receptor (P29371 whole entry): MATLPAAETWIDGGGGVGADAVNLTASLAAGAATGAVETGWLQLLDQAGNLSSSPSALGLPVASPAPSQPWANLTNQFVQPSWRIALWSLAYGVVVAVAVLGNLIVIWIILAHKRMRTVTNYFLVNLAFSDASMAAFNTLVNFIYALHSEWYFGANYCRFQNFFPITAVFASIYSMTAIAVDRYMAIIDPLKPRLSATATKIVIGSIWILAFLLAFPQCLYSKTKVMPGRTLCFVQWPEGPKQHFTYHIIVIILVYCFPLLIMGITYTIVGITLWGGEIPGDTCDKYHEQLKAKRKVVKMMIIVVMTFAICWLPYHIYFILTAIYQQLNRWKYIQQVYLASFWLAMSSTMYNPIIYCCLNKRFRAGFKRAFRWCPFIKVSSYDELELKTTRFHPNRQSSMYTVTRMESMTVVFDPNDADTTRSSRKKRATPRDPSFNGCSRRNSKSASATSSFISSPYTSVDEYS

Question: With `CCN(C(=O)Oc1ccc(F)cc1)[C@@H]1CN(C(=O)C2CCN(c3ccc(F)cn3)CC2)C[C@H]1c1ccc(F)c(F)c1` [Example 54, [(3S,4R)-4-(3,4-Difluoro-phenyl)-1-(5′-fluoro-3,4,5,6-tetrahydro-2H-[1,2′]bipyridinyl-4-carbonyl)-pyrrolidin-3-yl]-ethyl-carbamic acid 4-fluoro-phenyl ester] as the compound, how does the Ki read?
Answer: 7 nM

Question: How did the Ki turn out when `CCN(C(=O)Oc1ccc(F)cc1)[C@@H]1CN(C(=O)C2CCNCC2)C[C@H]1c1ccc(Cl)c(F)c1` [Example 56, [(3S,4R)-4-(4-Chloro-3-fluoro-phenyl)-1-(piperidine-4-carbonyl)-pyrrolidin-3-yl]-ethyl-carbamic acid 4-fluoro-phenyl ester] was run?
Answer: 267 nM

Question: With `CCN(C(=O)Oc1ccc(F)cc1)[C@@H]1CN(C(=O)C2CCN(c3ccc(C#N)nn3)CC2)C[C@H]1c1ccc(Cl)c(F)c1` [Example 57, {(3S,4R)-4-(4-Chloro-3-fluoro-phenyl)-1-[1-(6-cyano-pyridazin-3-yl)-piperidine-4-carbonyl]-pyrrolidin-3-yl}-ethyl-carbamic acid 4-fluoro-phenyl ester] as the compound, how does the Ki read?
Answer: 0.7 nM

Question: How did the Ki turn out when `CCN(C(=O)Oc1ccc(F)cc1)[C@@H]1CN(C(=O)C2CCN(c3ccc(C#N)nn3)CC2)C[C@H]1c1ccc(F)c(F)c1` [Example 58, [(3S,4R)-1-[1-(6-Cyano-pyridazin-3-yl)-piperidine-4-carbonyl]-4-(3,4-difluoro-phenyl)-pyrrolidin-3-yl]-ethyl-carbamic acid 4-fluoro-phenyl ester] was run?
Answer: 5 nM

Question: `CCN(C(=O)Oc1ccc(F)cc1)[C@@H]1CN(C(=O)C2CCN(c3ccc(C(C)=O)cn3)CC2)C[C@H]1c1ccc(Cl)c(F)c1` [Example 59, [(3S,4R)-1-(5′-Acetyl-3,4,5,6-tetrahydro-2H-[1,2′]bipyridinyl-4-carbonyl)-4-(4-chloro-3-fluoro-phenyl)-pyrrolidin-3-yl]-ethyl-carbamic acid 4-fluoro-phenyl ester] was tested. Which Ki did it give?
Answer: 0.5 nM

Question: With `CCN(C(=O)Oc1ccc(F)cc1)[C@@H]1CN(C(=O)C2CCN(c3ccc(C(C)=O)cn3)CC2)C[C@H]1c1ccc(F)c(F)c1` [Example 60, [(3S,4R)-1-(5′-Acetyl-3,4,5,6-tetrahydro-2H-[1,2′]bipyridinyl-4-carbonyl)-4-(3,4-difluoro-phenyl)-pyrrolidin-3-yl]-ethyl-carbamic acid 4-fluoro-phenyl ester] as the compound, how does the Ki read?
Answer: 4 nM

Question: `CCN(C(=O)Oc1ccc(F)cc1)[C@@H]1CN(C(=O)C2CCN(c3cnc(C#N)cn3)CC2)C[C@H]1c1ccc(Cl)c(F)c1` [Example 61, {(3S,4R)-4-(4-Chloro-3-fluoro-phenyl)-1-[1-(5-cyano-pyrazin-2-yl)-piperidine-4-carbonyl]-pyrrolidin-3-yl}-ethyl-carbamic acid 4-fluoro-phenyl ester] was tested. Which Ki did it give?
Answer: 0.8 nM

Question: With `CCN(C(=O)Oc1ccc(F)cc1)[C@@H]1CN(C(=O)C2CCN(c3cnc(C#N)cn3)CC2)C[C@H]1c1ccc(F)c(F)c1` [Example 62, [(3S,4R)-1-[1-(5-Cyano-pyrazin-2-yl)-piperidine-4-carbonyl]-4-(3,4-difluoro-phenyl)-pyrrolidin-3-yl]-ethyl-carbamic acid 4-fluoro-phenyl ester] as the compound, how does the Ki read?
Answer: 6 nM

Question: Which Ki does the source give for `CCN(C(=O)Oc1ccc(F)cc1)[C@@H]1CN(C(=O)C2CCN(c3ccc(S(C)(=O)=O)cn3)CC2)C[C@H]1c1ccc(Cl)c(F)c1` [Example 63, [(3S,4R)-4-(4-Chloro-3-fluoro-phenyl)-1-(5′-methanesulfonyl-3,4,5,6-tetrahydro-2H-[1,2′]bipyridinyl-4-carbonyl)-pyrrolidin-3-yl]-ethyl-carbamic acid 4-fluoro-phenyl ester] here?
Answer: 0.7 nM

Same assay, conditions: read-out: Data Ki (hNK-3 receptor affinity)

Question: `CCN(C(=O)Oc1ccc(F)cc1)[C@@H]1CN(C(=O)C2CCN(c3ccc(C)cn3)CC2)C[C@H]1c1ccc(F)c(F)c1` [Example 55, [(3S,4R)-4-(3,4-Difluoro-phenyl)-1-(5′-methyl-3,4,5,6-tetrahydro-2H-[1,2′]bipyridinyl-4-carbonyl)-pyrrolidin-3-yl]-ethyl-carbamic acid 4-fluoro-phenyl ester] was tested. Which Ki did it give?
Answer: 9 nM

Reference: patent US9346786B2, “Pyrrolidine compounds” (Hoffmann-La Roche Inc., priority 2009, dated 2016)
